US10280167B2, “Purine derivatives for the treatment of viral infections” (JANSSEN SCIENCES IRELAND UC, priority 2011, dated 2019)
Where two headings read alike, the source gives them in different places.

How the values were obtained:
Type in all cases: cell-based
[1] = tested on: Huh-7 luc/neo HCV replicon cells with conditioned media from PBMC; assay: Interferon production in human PBMC (PBMC-HUH7_EC50), HCV replicon readout with conditioned media; conditions: concentration applied to PBMCs giving 50% reduction of replicon luciferase activity
Procedure: Measurement of Interferon Production in Human PBMC (PBMC-HUH7_EC50)
Activation of human TLR7 results in robust production of interferon by plasmacytoid dendritic cells present in human blood. The potential of compounds to induce interferon was evaluated by looking at the antiviral activity in the HCV replicon system upon incubation with conditioned media from peripheral blood mononuclear cells (PBMC). The HCV replicon assay is based on a bicistronic expression construct, as described by Lohmann et al. (Science (1999) 285: 110-113; Journal of Virology (2003) 77: 3007-15 3019) with modifications described by Krieger et al. (Journal of Virology (2001) 75: 4614-4624). The assay utilized the stably transfected cell line Huh-7 luc/neo harboring an RNA encoding a bicistronic expression construct comprising the wild type NS3-NS5B regions of HCV type 1b translated from an Internal Ribosome Entry Site (IRES) from encephalomyocarditis virus (EMCV), preceded by a reporter gene (Firefly-luciferase) and a selectable marker gene (neoR, neomycine phosphotransferase). The construct is flanked by 5′ and 3′ NTRs (non-translated regions) from HCV type 1b. Continued culture of the replicon cells in the presence of G418 (neoR) is dependent on the replication of the HCV RNA. The stably transfected replicon cells that replicate HCV RNA autonomously and to high levels, encoding inter alia luciferase, were used for profiling of the conditioned cell culture media. Briefly, PBMCs were prepared from buffy coats of at least two donors using a standard Ficoll centrifugation protocol. Isolated PBMCs were resuspended in RPMI medium supplemented with 10% human AB serum and 2×10^5 cells/well were dispensed into 384-well plates containing compounds (70 μL total volume). After overnight incubation, […] was transferred to 384-well plates containing 2.2×10^3 replicon cells/well in 30 μL (plated the day before). Following 24 hours of incubation, replication was measured by assaying luciferase activity using 40 μL/well Steady Lite Plus substrate (Perkin Elmer) and measured with ViewLux ultraHTS microplate imager (Perkin Elmer). The inhibitory activity of each compound on the Huh7-luc/neo cells were reported as EC50 values, defined as the compound concentration applied to the PBMCs resulting in a 50% reduction of luciferase activity which in turn indicates the degree of replication of the replicon RNA on transfer of a defined amount of PBMC culture medium. Recombinant interferon α-2a (Roferon-A) was used as a standard control compound.

[2] = tested on: HEK-ISRE-luc cells with conditioned media from PBMC; assay: Interferon production in human PBMC (PBMC HEK-ISRE-luc LEC); conditions: for minimal effective concentration: Homo sapiens, PBMC, read-out: PBMC HEK-ISRE-luc (LEC)
Procedure: Measurement of Interferon Production in Human PBMC (PBMC HEK-ISRE-Luc LEC)
Activation of human TLR7 results in robust production of interferon by plasmacytoid dendritic cells present in human blood. The potential of compounds to induce interferon was evaluated by determination of interferon in the conditioned media from peripheral blood mononuclear cells (PBMC). The presence of interferon in the samples was determined, using an interferon reporter cell line stably expressing an interferon-stimulated responsive elements (ISRE)-luc reporter construct. The ISRE element with sequence GAAACTGAAACT (SEQ ID NO: 1) is highly responsive to the STAT1-STAT2-IRF9 transcription factor, which becomes activated upon binding of IFN-I to the IFN receptor. Briefly, PBMCs were prepared from buffy coats of at least two donors using a standard Ficoll centrifugation protocol. Isolated PBMCs were resuspended in RPMI medium supplemented with 10% human AB serum and 2×10^5 cells/well were dispensed into 384-well plates containing compounds (70 μL total volume). After overnight incubation of the PBMCs with the compounds, 10 μL of supernatant was transferred to 384-well plates containing 5×10^3 HEK-ISRE-luc cells/well in 30 μL (plated the day before). Following 24 hours of incubation, activation of the ISRE elements was measured by assaying luciferase activity using 40 μL/well Steady Lite Plus substrate (Perkin Elmer) and measured with ViewLux ultraHTS microplate imager (Perkin Elmer). The stimulating activity of each compound on the HEK-ISRE-luc cells was reported as LEC. The LEC in turn indicates the degree of ISRE activation on transfer of a defined amount of PBMC culture medium.
Recombinant interferon alfa-2a (Roferon-A) was used as a standard control compound.

human TLR7 = human TLR7 (Homo sapiens (Human), UniProt Q9NYK1); assay: Reporter assay for TLR7 activity, HEK293 transiently transfected with wild type TLR7 and NFκB-luc; conditions: lowest effective concentration; 48 h transfection
human TLR7 dIRR2 mutant = assay: Reporter assay for TLR7 activity, HEK293 transfected with mutant TLR7 (dIRR2 deletion) and NFκB-luc; conditions: lowest effective concentration; 48 h transfection

Sequence of human TLR7 (Q9NYK1 27-1049): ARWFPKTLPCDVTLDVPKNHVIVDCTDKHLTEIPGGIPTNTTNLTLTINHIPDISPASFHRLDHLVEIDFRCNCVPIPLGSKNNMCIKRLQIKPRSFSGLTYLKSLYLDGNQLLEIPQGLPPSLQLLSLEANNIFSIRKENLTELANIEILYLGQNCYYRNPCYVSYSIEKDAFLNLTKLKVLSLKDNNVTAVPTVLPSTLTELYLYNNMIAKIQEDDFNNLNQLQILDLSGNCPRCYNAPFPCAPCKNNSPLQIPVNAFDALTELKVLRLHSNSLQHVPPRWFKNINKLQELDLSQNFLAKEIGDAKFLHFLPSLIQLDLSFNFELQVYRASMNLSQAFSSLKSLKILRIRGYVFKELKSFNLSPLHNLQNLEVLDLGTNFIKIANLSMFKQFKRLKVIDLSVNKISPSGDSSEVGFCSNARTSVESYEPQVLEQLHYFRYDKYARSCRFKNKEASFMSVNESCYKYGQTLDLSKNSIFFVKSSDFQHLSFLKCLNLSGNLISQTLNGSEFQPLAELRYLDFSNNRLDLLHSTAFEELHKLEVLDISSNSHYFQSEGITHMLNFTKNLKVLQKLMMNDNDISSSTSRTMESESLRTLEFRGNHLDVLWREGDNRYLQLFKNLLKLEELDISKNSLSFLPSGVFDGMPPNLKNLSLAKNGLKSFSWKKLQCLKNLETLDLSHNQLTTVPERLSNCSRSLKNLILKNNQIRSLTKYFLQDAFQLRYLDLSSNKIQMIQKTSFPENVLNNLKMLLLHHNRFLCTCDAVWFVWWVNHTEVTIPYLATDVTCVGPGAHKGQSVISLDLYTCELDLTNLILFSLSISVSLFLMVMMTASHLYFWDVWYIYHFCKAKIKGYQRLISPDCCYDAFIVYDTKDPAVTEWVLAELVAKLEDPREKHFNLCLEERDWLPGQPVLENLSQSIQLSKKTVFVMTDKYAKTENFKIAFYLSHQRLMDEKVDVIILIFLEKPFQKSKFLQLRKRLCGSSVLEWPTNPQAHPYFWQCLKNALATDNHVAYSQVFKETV

Compound	EC50 ([1]; Homo sapiens, Huh-7)	minimal effective concentration ([2]; lowest effective concentration)	TLR7-wt_LEC 48 h (human TLR7)	TLR7-dIRR2_LEC 48 h (human TLR7 dIRR2 mutant)	minimal effective concentration [2]	EC50 [1]	PBMC HEK-ISRE-luc (LEC) ([2]; lowest effective concentration)
Cc1ccc(Cn2c(=O)[nH]c3c(N)nc(-c4nc(C5CC5)c[nH]4)nc32)cn1 [Compound 26]	5 nM	0.006 µM	2.42 µM	0.21 µM			
COC(=O)c1cccc(Cn2c(=O)[nH]c3c(N)nc(-n4cccn4)nc32)c1 [Compound 37]		0.01 µM	0.05 µM				
Nc1nc(-c2ccn[nH]2)nc2c1[nH]c(=O)n2Cc1cn2ccccc2n1 [Compound 43]		0.15 µM	0.50 µM				
COC(=O)c1cccc(Cn2c(=O)[nH]c3c(N)nc(-c4ccn[nH]4)nc32)c1 [Compound 44]		0.04 µM	0.10 µM				
Nc1nc(-c2cc(C3CC3)n[nH]2)nc2c1[nH]c(=O)n2Cc1ccccc1 [Compound 51]		0.17 µM	0.16 µM				
COC(=O)COc1ccc(Cn2c(=O)[nH]c3c(N)nc(-c4ncc[nH]4)nc32)cn1 [Compound 57]	1210 nM	1.38 µM	0.44 µM	0.06 µM			
CC(C)c1c[nH]c(-c2nc(N)c3[nH]c(=O)n(Cc4ccccc4)c3n2)n1 [Compound 29]	1660 nM	0.82 µM		1.58 µM			
COCCn1ccnc1-c1nc(N)c2[nH]c(=O)n(Cc3ccccc3)c2n1 [Compound 11]	330 nM	0.32 µM	5.36 µM	0.19 µM			
Nc1nc(-c2nccn2CCO)nc2c1[nH]c(=O)n2Cc1ccccc1 [Compound 27]	800 nM	0.43 µM	6.03 µM	0.63 µM			
Cc1ccc(Cn2c(=O)[nH]c3c(N)nc(-n4cccn4)nc32)cn1 [Compound 50]		0.01 µM	0.03 µM				
Cn1ccnc1-c1nc(N)c2[nH]c(=O)n(Cc3ccccc3)c2n1 [Compound 12]	590 nM	0.34 µM	8.08 µM	0.3 µM			
Nc1nc(-c2ccn(CCO)n2)nc2c1[nH]c(=O)n2Cc1ccccc1 [Compound 52]		0.42 µM	4.42 µM	0.41 µM			
Nc1nc(-c2nc(C3CC3)c[nH]2)nc2c1[nH]c(=O)n2CCCCCCN1CCCC1 [Compound 62]	700 nM	0.72 µM	21.2 µM	>25 µM			
Nc1nc(-c2ncc[nH]2)nc2c1[nH]c(=O)n2Cc1cccc(C(=O)N2CCCC2)c1 [Compound 55]	1270 nM	1.16 µM		0.06 µM			
Nc1nc(-n2cccn2)nc2c1[nH]c(=O)n2Cc1cccc(C(=O)O)c1 [Compound 38]		> 25 µM	0.38 µM				
Nc1nc(-c2ccn[nH]2)nc2c1[nH]c(=O)n2Cc1cccc(CO)c1 [Compound 46]		0.03 µM	0.21 µM				
Nc1nc(-n2cccn2)nc2c1[nH]c(=O)n2Cc1cn2ccccc2n1 [Compound 48]		0.01 µM	0.01 µM				
Cc1nc(-c2nc(N)c3[nH]c(=O)n(Cc4ccccc4)c3n2)[nH]c1C [Compound 7]	640 nM	0.88 µM	>25 µM	1.46 µM			

Compound	EC50 ([1]; Homo sapiens, Huh-7)	minimal effective concentration ([2]; lowest effective concentration)	TLR7-wt_LEC 48 h (human TLR7)	TLR7-dIRR2_LEC 48 h (human TLR7 dIRR2 mutant)	minimal effective concentration [2]	EC50 [1]	PBMC HEK-ISRE-luc (LEC) ([2]; lowest effective concentration)
Cc1c[nH]c(-c2nc(N)c3[nH]c(=O)n(Cc4ccccc4)c3n2)n1 [Compound 8]	170 nM	0.25 µM	5.91 µM	0.17 µM			
CCOP(=O)(Cc1cccc(Cn2c(=O)[nH]c3c(N)nc(-n4cccn4)nc32)c1)OCC [Compound 40]			0.03 µM		0.01 µM		
Cc1ccc(Cn2c(=O)[nH]c3c(N)nc(-c4ncc[nH]4)nc32)cn1 [Compound 9]	50 nM	0.03 µM	0.88 µM	0.07 µM			
Nc1nc(-n2cccn2)nc2c1[nH]c(=O)n2Cc1ccccc1 [Compound 36]	47 nM	0.033 µM	0.22 µM	0.017 µM			
Nc1nc(-c2nc(C(F)(F)F)c[nH]2)nc2c1[nH]c(=O)n2Cc1ccccc1 [Compound 31]	1300 nM	2.2 µM	23.23 µM	0.51 µM			
CC(C)(C)c1c[nH]c(-c2nc(N)c3[nH]c(=O)n(Cc4ccccc4)c3n2)n1 [Compound 28]	> 23800 nM	> 23.8 µM	>25 µM	8.77 µM			
Nc1nc(-c2ccn[nH]2)nc2c1[nH]c(=O)n2Cc1ccccc1 [Compound 23]	130 nM	0.12 µM	0.23 µM	0.007 µM			
CCOP(=O)(CCCn1ccnc1-c1nc(N)c2[nH]c(=O)n(Cc3ccccc3)c2n1)OCC [Compound 47]			14.12 µM		1.64 µM		
Nc1nc(-n2cccn2)nc2c1[nH]c(=O)n2Cc1cccc(CO)c1 [Compound 39]		0.01 µM	0.05 µM				
Cc1noc(-c2nc(N)c3[nH]c(=O)n(Cc4ccccc4)c3n2)n1 [Compound 33]	810 nM	0.52 µM	21.66 µM	0.98 µM			
Cc1cn[nH]c1-c1nc(N)c2[nH]c(=O)n(Cc3ccccc3)c2n1 [Compound 53]	760 nM		3.17 µM	0.36 µM			
Nc1nc(-c2ncc[nH]2)nc2c1[nH]c(=O)n2Cc1ccc(OCC(=O)O)nc1 [Compound 58]	2750 nM	2.69 µM	0.99 µM	0.06 µM			
CCc1c[nH]c(-c2nc(N)c3[nH]c(=O)n(Cc4ccccc4)c3n2)n1 [Compound 30]	170 nM	0.12 µM	12.71 µM	0.14 µM			
CN1CCN(CCCCCn2c(=O)[nH]c3c(N)nc(-c4ncc[nH]4)nc32)CC1 [Compound 61]			>25 µM	9.73 µM		1340 nM	0.95 µM
Cl.Nc1nc(-n2cccn2)nc2c1[nH]c(=O)n2Cc1cccc(CP(=O)(O)O)c1 [Compound 41]		0.4 µM	0.03 µM				
COc1ccnc(Cn2c(=O)[nH]c3c(N)nc(-n4cccn4)nc32)c1OC [Compound 49]		0.06 µM	0.31 µM				
Nc1nc(-c2ccn[nH]2)nc2c1[nH]c(=O)n2Cc1cccc(C(=O)O)c1 [Compound 45]		1.37 µM	0.58 µM				
